{"source": "patent US20080132481A1", "about": "“INTERLEUKIN-4 GENE EXPRESSION INHIBITORS” (AVENTIS PHARMACEUTICALS INC., priority 2002, published 2008)", "key": {"IL-4": {"test_system": "IL-4", "test": "Human primary Th2 cells, IL-4 by ELISA", "type": "cell-based", "conditions": "for IC50: human primary Th2 cells activated with anti-CD3 and anti-CD28 (Table 5); for IL-4 (% control) mean: human Th2 cells, anti-CD3/anti-CD28, 48 hr", "experimental": "Briefly, CD4^+CD45RA^+ T cells, isolated from donor peripheral blood mononuclear cells of healthy donors, are educated in the presence of anti-CD3/CD28 antibodies and various growth factors to obtain either a Th1-like or Th2-like phenotypes as determined by the known cytokine profiles of these two cell types.\n(§1) Peripheral blood mononuclear cells (PBMC) are prepared from human blood by Ficoll-Hypacque (Pharmacia). The cells are washed two times in Hanks balanced salt solution (HBSS) and counted.\nNaïve T cells (CD4^+/CD45RA) are prepared by negative selection method using following antibodies and Dynabeads: anti-CD8, anti-HLA-DR, (where HLA means human leucocyte antigen) anti-CD14, anti-CD16, anti-CD19, anti-CD45RO antibodies (all from R&D Systems, 1-2 μg/ml) are added to the cells, and the cells are kept on ice for 30 min. The cells are washed two times in HBSS, and goat anti-mouse Ig-beads, (bead:target ratio, 5:1) are added. The cells and beads are slowly rotated at 4° C. for 20 min. (following the protocol supplied from Dynal). The supernatant is removed and fresh goat anti-mouse Ig-beads are added to the supernatant, which is slowly rotated at 4° C. for 20 min. The cells are counted and phenotypically characterized by flow cytometric analysis.\nGeneration of Th1/Th2 cells: Twenty four well plates are coated with 300 μL anti-CD3 Ab (10 μg/ml, in PBS 1-2 h at 37° C. or overnight at 4° C.), and washed two times with PBS. […]/CD45RA^+ cells at a density of 10^6/ml in RPMI, is prepared and added to RPMI medium containing 10% Hyclone serum/glutamine and 1-2 μg/ml anti-CD28 Ab. The cells are split in two aliquots. For Th1 cells: anti-IL-4 Ab (1-2 μg/ml), IFN-γ (1 μg/ml, or 5000 units/ml) are added to the wells. For Th2 cells: IL-4 (100-200 ng/ml), anti-IFN-γ neutralizing Ab (1-2 μg/ml), anti-IL-12 neutralizing Ab (1-2 μg/ml) are added into the wells. The cells are incubated for 2-3 days at 37° C. The cells are transferred to fresh wells and grown in 200 units/ml IL-2 for 2 weeks by feeding them every other day with IL-2 containing medium and splitting the cultures 1:2 or 1:3 as needed. The degree of polarization is determined by intracellular staining of cells with anti-IFN-γ and anti-IL-4 antibodies from Pharmingen, and using flow cytometry from Becton Dickinson (BD), according to manufacturers description. The cells are stimulated with PHA and alloantigens at day 14 and 28 as described below. Eight days after the second allostimulation the cells can be used for compound screening or frozen for future use. For compound testing, large quantities of Th1 and Th2 cells derived from a given donor (NYTh1 and NYTh2) were expanded and frozen as aliquots in liquid nitrogen. The cells are thawed and cultured as and when needed. The thawed cells are stimulated with alloantigen/PHA combination. The cells are used for compound screening after 8-10 days in culture.\nRe-stimulation by allogeneic cells: Human PBMCs, to be used as alloantigens, are isolated from freshly drawn blood by Ficoll separation. Cells are resuspended in medium containing 50 μg/ml mitomycin C and incubated for 40 minutes at 37° C. and then washed extensively to remove all of the Mitomycin C. Cells are counted and diluted to a final concentration of 2×10^6/ml in medium containing 10 μg/ml PHA and 200 units/ml IL-2."}, "IL-5": {"test_system": "IL-5", "test": "Human primary Th2 cells, IL-5 by ELISA", "type": "cell-based", "conditions": "human primary Th2 cells activated with anti-CD3 and anti-CD28 (Table 5)", "text": "(§2) The methods described herein permit polarization of primary human peripheral blood cells into Th1 and Th2 cells and generation of sufficiently large quantities of Th1 and Th2 cells, e.g., billions of cells, to allow drug screening. Briefly, CD4^+CD45RA^+ T cells, isolated from donor peripheral blood mononuclear cells of healthy donors, are educated in the presence of anti-CD3/CD28 antibodies and various growth factors to obtain either a Th1-like or Th2-like phenotypes as determined by the known cytokine profiles of these two cell types. Primary human Th1 cells secreted IFN-γ and IL-2 cytokines while primary human Th2 cells secreted IL-4, IL-5, IL-13 and basal amounts of IFN-γ that are measurable by enzyme linked immuno absorption assay (ELISA).\nas §1\n(§3) Naïve T cells (CD4^+/CD45RA) are prepared by negative selection method using following antibodies and Dynabeads: anti-CD8, anti-HLA-DR, (where HLA means human leucocyte antigen) anti-CD14, anti-CD16, anti-CD19, anti-CD45RO antibodies (all from R&D Systems, 1-2 μg/ml) are added to the cells, and the cells are kept on ice for 30 min. […] The cells are counted and phenotypically characterized by flow cytometric analysis. […]"}, "IL-13": {"test_system": "IL-13", "test": "Human primary Th2 cells, IL-13 by ELISA", "type": "cell-based", "conditions": "human primary Th2 cells activated with anti-CD3 and anti-CD28 (Table 5)", "text": "as §2, §1, §3"}, "IFN-γ": {"test_system": "IFN-γ", "test": "Human primary Th2 cells, IFN-γ by ELISA", "type": "cell-based", "conditions": "human primary Th2 cells activated with anti-CD3 and anti-CD28 (Table 5)", "text": "as §2, §1, §3"}, "Human Th2 cells": {"test_system": "Human Th2 cells", "test": "Human primary Th2 cells, proliferation (MTS viability test)", "type": "cell-based", "conditions": "human primary Th2 cells activated with anti-CD3 and anti-CD28 (Table 5); read-out: Prolif. IC50", "text": "as §2, §1, §3"}, "Swiss 3T3 fibroblasts": {"test_system": "Swiss 3T3 fibroblasts", "test": "In vitro cytotoxicity assay on contact inhibited 3T3 fibroblasts (MTS)", "type": "cell-based", "experimental": "Other toxicity assays may be used.\nAny compound killing 3T3 fibroblast cells was omitted from further studies.\nContact inhibited Swiss 3T3 fibroblasts are purchased from ATCC.\nAll compound dilutions are assayed in triplicate. […] Cells are returned to the incubator for 2 days.\nMedia is added to blank wells for background calculations.\nNote that starting concentration of CsA was 1 μM."}, "[1]": {"test_system": "sheep allergic to Ascaris suum", "test": "Sheep asthma model (Ascaris suum antigen challenge)", "type": "in vivo", "experimental": "Briefly, transpulmonary pressure, pulmonary resistance (RL), specific lung resistance (SRL airway hyperreactivity, airway responsiveness, are determined.\nVenous blood samples (˜5 ml) are obtained from a peripheral leg vein or the jugular vein for pharmacokinetic data. Measurement of Airway Mechanics: The unsedated sheep are restrained in a cart in the prone position with their heads immobilized. After topical anesthesia of the nasal passages with 2% lidocaine solution, a balloon catheter is advanced through one nostril into the lower esophagus. The animals are […] with a cuffed endotracheal tube through the other nostril using a flexible fiberoptic bronchoscope as a guide. (The cuff of the endotracheal tube is inflated only for the measurement of airway mechanics and during aerosol challenges to prevent undue discomfort. This procedure has no effect on airway mechanics). Pleural pressure is estimated with the esophageal balloon catheter (filled with one ml of air) which is positioned 5-10 cm from the gastroesophageal junction. In this position the end expiratory pleural pressure ranges between −2 and −5 cm H20. Once the balloon is placed, it is secured so that it remains in position for the duration of the experiment. Lateral pressure in the trachea is measured with a sidehole catheter (inner dimension, 2.5 mm) advanced through and positioned distal to the tip of the endotracheal tube. Transpulmonary pressure, the difference between tracheal and pleural pressure, is measured with a differential pressure transducer catheter system. […] The signals of flow and transpulmonary pressure is recorded on an oscilloscope recorder which is linked to a computer for on-line calculation of RL from transpulmonary pressure, respiratory volume (obtained by digital integration) and flow. […] Immediately after the measurement of RL, thoracic gas volume (Vtg) is measured in a constant volume body plethysmograph to obtain specific lung resistance (SRL=RL·Vtg) in L×cm H20/LPS. […]"}, "ovalbumin specific IgE": {"test_system": "ovalbumin specific IgE", "test": "OVA induced IgE in mice", "type": "in vivo, mouse", "conditions": "serum day 15, 10 mg/kg intraperitoneally once a day from day 6 to day 14, vehicle 150.8", "experimental": "Table 10 summarizes effects of 3-(4-pyridinylamino)-1H-indole-2-carboxylic acid on OVA induced IgE in mice. Female mice (5-8 week age, Balb/c, Charles River) were used in this study. Ovalbumin (Sigma) was adsorbed to Aluminum Hydroxide Adsorptive Gel, Inter, and injected 10 μg/0.2 ml/mouse intraperitoneally on experimental day 0 and day 7. Dexamethasone (Sigma) and 3-(4-pyridinylamino)-1H-indole-2-carboxylic acid (Example 28) were in 10% HPCD (Hydroxypropyl-β-Cyclodextrin, Aldrich). Dexamethasone (10 mg/kg), 3-(4-pyridinylamino)-1H-indole-2-carboxylic acid (Example 28) (3 and 10 mg/kg) and 10% HPCD (0.2 ml/mouse) are injected into mice intraperitoneally once a day from day 6 to day 14. They were bled at day 15. Serum ovalbumin specific IgE levels were determined by standard ELISA using a goat anti-mouse IgE antibody labeled with alkaline phosphatase. The anti-OVA titers were determined by malting serial dilutions of the test sera and comparing with vehicle control."}, "[2]": {"conditions": "3 mg/kg aerosol 30 min before antigen challenge, 2 sheep per group (FIG. 3A)"}}}
{"smiles": "O=C(O)c1[nH]c2cc(Cl)ccc2c1NC(=O)C1CCNCC1", "note": "[Example 82, 3-((4-Piperidineacyl)amino)-6-chloro-1H-indole-2-carboxylic acid]", "values": [{"measurement": "IC50", "setting": "IL-4", "result": 0.15, "unit": "µM"}, {"measurement": "IC50", "setting": "IL-5", "result": "> 10", "unit": "µM"}, {"measurement": "IC50", "setting": "IL-13", "result": "> 10", "unit": "µM"}, {"measurement": "IC50", "setting": "IFN-γ", "result": "> 10", "unit": "µM"}, {"measurement": "IC50", "setting": "Human Th2 cells", "result": "> 10", "unit": "µM"}]}
{"smiles": "CCOC(=O)c1[nH]c2cc(Cl)cc(Cl)c2c1N(C)C(=O)c1ccccc1", "note": "[Example 83, 3-((Benzoyl)methylamino)-4,6-dichloro-1H-indole-2-carboxylic acid ethyl ester]", "values": [{"measurement": "IC50", "setting": "IL-4", "result": 1, "unit": "µM"}, {"measurement": "IC50", "setting": "IL-5", "result": "> 10", "unit": "µM"}, {"measurement": "IC50", "setting": "IL-13", "result": "> 10", "unit": "µM"}, {"measurement": "IC50", "setting": "IFN-γ", "result": "> 10", "unit": "µM"}, {"measurement": "IC50", "setting": "Human Th2 cells", "result": "> 10", "unit": "µM"}]}
{"smiles": "O=C(O)c1[nH]c2ccccc2c1Nc1ccncc1", "note": "[Example 28, 3-(4-Pyridinylamino)-1H-indole-2-carboxylic acid]", "values": [{"measurement": "IL-4 (% control) mean", "setting": "IL-4; 0.01 μM", "result": 102.15, "unit": "% control"}, {"measurement": "IL-4 (% control) mean", "setting": "IL-4; 0.03 μM", "result": 65.30, "unit": "% control"}, {"measurement": "IL-4 (% control) mean", "setting": "IL-4; 0.1 μM", "result": 59.75, "unit": "% control"}, {"measurement": "IL-4 (% control) mean", "setting": "IL-4; 0.3 μM", "result": 45.00, "unit": "% control"}, {"measurement": "IL-4 (% control) mean", "setting": "IL-4; 1 μM", "result": 42.55, "unit": "% control"}, {"measurement": "IL-4 (% control) mean", "setting": "IL-4; 3 μM", "result": 36.40, "unit": "% control"}, {"measurement": "IL-4 (% control) mean", "setting": "IL-4; 10 μM", "result": 30.80, "unit": "% control"}, {"measurement": "toxic effects on quiescent 3T3 cells (in words)", "setting": "Swiss 3T3 fibroblasts", "result": "no toxic effects"}, {"measurement": "antigen-induced early bronchial response: acute increase in specific lung resistance (SRL)", "setting": "[1]; [2]", "result": "did not affect"}, {"measurement": "antigen-induced late bronchial response (SRL)", "setting": "[1]; [2]", "result": "blocked the late response"}, {"measurement": "post challenge airway responsiveness (decrease of PC400 after antigen challenge)", "setting": "[1]; 3 mg/kg, 2 sheep (FIG. 3B)", "result": "prevented this effect"}]}
{"smiles": "C[C@@H]1C[C@H]2[C@@H]3CCC4=CC(=O)C=C[C@]4(C)[C@@]3(F)[C@@H](O)C[C@]2(C)[C@@]1(O)C(=O)CO", "note": "[Dexamethasone]", "values": [{"measurement": "Anti-OVA IgE", "setting": "ovalbumin specific IgE", "result": 27.4}]}
